Laboratory results from patent US20240327456A1, “CANCER THERAPEUTICS” (UNIVERSITAT DE BARCELONA, priority 2021, published 2024).
Square brackets hold non-standard residues; d marks the D form. Peptide text beside a SMILES is read from it. * marks the point of attachment. Chg = N[CH](C(=O)O)C1CCCCC1; X1 = C1CCC2(CC1)CCN(*)CC2; PhAc = O=C(Cc1ccccc1)*

Columns and labels:
[1] = Solubility when diluted in cell medium (in vitro assay conditions); conditions: cell culture assay conditions
[2] = Solubility in PBS with 15% β-cyclodextrin; format: physicochemical; conditions: 1 mM, 24 hours agitation, supernatant by HPLC; mean±SD
Experimental: xxxxx Furthermore, an additional effort was done to reevaluate those peptidomimetics from the first generation that were not soluble in the in vitro assay conditions or formed aggregates as described above when incubated with the RPE cells.
We then put these peptidomimetics under constant agitation for 24 hours. […] Data are expressed as the mean±SD.

- Solubility when diluted in cell medium [1]: not soluble
- Conc. in PBS β-cyclodextrin 15% [2]: 844 ± 4 µM
Compound: CC(C)CC(NC(=O)C(Cc1c[nH]c2ccccc12)NC(=O)C(NC(=O)C(CCCCN)NC(=O)Cc1ccccc1)C1CCCCC1)C(=O)N1CCC2(CCCCC2)CC1 (centres unmarked) [IP-14-06] (PhAc-K[Chg]WL-X1; configuration not given here)
